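Results reflect a 48-hour exposure of cells in 96-well plates to compound at five concentrations. GI50 marks 50% less growth.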 Calls of active or inactive are those of the source. Rule as the data show it: active = GI50 up to about 1.1 µM and inactive = higher.
Columns and labels:
Test in all cases: DTP human tumour cell line panel, 48 h
M14 = system: M14
LOX IMVI = system: LOX IMVI
HL-60 = system: HL-60
NCI-H226 = system: NCI-H226
K562 = system: K562
SF-295 = system: SF-295
A498 = system: A498
HOP-92 = system: HOP-92
SW-620 = system: SW-620
NCI-H23 = system: NCI-H23
MDA-N = system: MDA-N
SF-539 = system: SF-539
UO-31 = system: UO-31
RXF 393 = system: RXF 393
COLO 205 = system: COLO 205
HT-29 = system: HT-29
HCT-116 = system: HCT-116
MOLT-4 = system: MOLT-4
CCRF-CEM = system: CCRF-CEM
Malme-3M = system: Malme-3M
SK-OV-3 = system: SK-OV-3
ACHN = system: ACHN
UACC-62 = system: UACC-62
SNB-19 = system: SNB-19
SNB-75 = system: SNB-75
SK-MEL-5 = system: SK-MEL-5
U-251 = system: U-251
OVCAR-8 = system: OVCAR-8
EKVX = system: EKVX
T47D = system: T47D
SF-268 = system: SF-268
UACC-257 = system: UACC-257
Hs-578T = system: Hs-578T
A549 = system: A549
OVCAR-3 = system: OVCAR-3
NCI-H522 = system: NCI-H522
DU-145 = system: DU-145
KM12 = system: KM12
MCF7 = system: MCF7
786-0 = system: 786-0
PC-3 = system: PC-3
RPMI-8226 = system: RPMI-8226
OVCAR-5 = system: OVCAR-5
NCI/ADR-RES = system: NCI/ADR-RES
CAKI-1 = system: CAKI-1
IGROV-1 = system: IGROV-1
SN12C = system: SN12C
SK-MEL-2 = system: SK-MEL-2
MDA-MB-231 = system: MDA-MB-231
SK-MEL-28 = system: SK-MEL-28
HOP-62 = system: HOP-62
TK-10 = system: TK-10

Measured: GI50

N#Cc1nc(C(O)c2ccccc2)oc1N (configuration not stated)
inactive: M14 > 100 µM | LOX IMVI > 100 µM | HL-60 > 100 µM | NCI-H226 > 100 µM | K562 > 100 µM | SF-295 > 100 µM | A498 > 100 µM | HOP-92 > 100 µM | SW-620 > 100 µM | NCI-H23 > 100 µM | MDA-N > 100 µM | SF-539 > 100 µM | UO-31 > 100 µM | RXF 393 17.9 µM | COLO 205 > 100 µM | HT-29 > 100 µM | HCT-116 > 100 µM | MOLT-4 > 100 µM | CCRF-CEM > 100 µM | Malme-3M > 100 µM | SK-OV-3 > 100 µM | ACHN > 100 µM | UACC-62 > 100 µM | SNB-19 > 100 µM | SNB-75 > 100 µM | SK-MEL-5 > 100 µM | U-251 > 100 µM | OVCAR-8 > 100 µM | EKVX > 100 µM | T47D > 100 µM | SF-268 > 100 µM | UACC-257 > 100 µM | Hs-578T > 100 µM | A549 > 100 µM | OVCAR-3 > 100 µM | NCI-H522 76.6 µM | DU-145 > 100 µM | KM12 > 100 µM | MCF7 > 100 µM | 786-0 > 100 µM | PC-3 > 100 µM | RPMI-8226 > 100 µM | OVCAR-5 > 100 µM | NCI/ADR-RES > 100 µM | CAKI-1 > 100 µM | IGROV-1 > 100 µM | SN12C > 100 µM | SK-MEL-2 > 100 µM | MDA-MB-231 > 100 µM | SK-MEL-28 > 100 µM | HOP-62 > 100 µM | TK-10 > 100 µM

Reference: ChEMBL document CHEMBL1201862, “PubChem BioAssay data set” (2004)
